Source: ChEMBL document CHEMBL1136174, “Synthesis and antimycobacterial activity of capuramycin analogues. Part 1: substitution of the azepan-2-one moiety of capuramycin” (Bioorg Med Chem Lett, 2003)
Values after ≈ are worked out from the molar mass of the structure shown.

Legend:
[1] = tested on: Mycolicibacterium smegmatis; assay: Antimycobacterial activity against Mycobacterium smegmatis (SANK 75075); format: functional
[2] = biological target: T1, Phospho-N-acetylmuramoyl-pentapeptide-transferase (Escherichia coli K-12, UniProt P0A6W3); assay: Inhibitory activity against translocase I
T1 sequence (P0A6W3 whole entry): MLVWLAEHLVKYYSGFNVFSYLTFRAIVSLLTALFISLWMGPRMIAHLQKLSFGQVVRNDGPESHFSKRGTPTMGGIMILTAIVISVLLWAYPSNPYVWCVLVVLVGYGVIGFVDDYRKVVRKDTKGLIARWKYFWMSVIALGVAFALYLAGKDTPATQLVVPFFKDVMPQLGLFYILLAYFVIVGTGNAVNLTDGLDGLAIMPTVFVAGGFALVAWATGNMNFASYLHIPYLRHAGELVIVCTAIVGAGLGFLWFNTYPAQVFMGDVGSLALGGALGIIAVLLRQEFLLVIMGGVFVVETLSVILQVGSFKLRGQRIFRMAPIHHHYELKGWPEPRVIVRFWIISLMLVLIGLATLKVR

Mycobacterium avium = assay: Antimycobacterial activity against Mycobacterium avium (NIHJ1605); format: functional
[3] = tested on: Mycobacterium intracellulare; assay: Antimycobacterial activity against Mycobacterium intracellular (ATCC 1954 E-3); format: functional
Mycobacterium kansasii = assay: Antimycobacterial activity against Mycobacterium kansasii (ATCC12478); format: functional

Structure (SMILES)	MIC [1]	IC50 [2]	MIC (Mycobacterium avium)	MIC [3]	MIC (Mycobacterium kansasii)
CCCCCCc1ccc(NC(=O)C2=C[C@H](O)[C@H](O)[C@@H](O[C@@H](C(N)=O)[C@H]3O[C@@H](n4ccc(=O)[nH]c4=O)[C@H](O)[C@@H]3OC)O2)cc1	12.5 µg/mL (≈ 20.2 µM)	259 nM			
COc1ccccc1CNC(=O)C1=C[C@H](O)[C@H](O)[C@@H](O[C@@H](C(N)=O)[C@H]2O[C@@H](n3ccc(=O)[nH]c3=O)[C@H](O)[C@@H]2OC)O1	50 µg/mL (≈ 86.4 µM)	484 nM			
CO[C@H]1[C@@H](O)[C@H](n2ccc(=O)[nH]c2=O)O[C@@H]1[C@@H](O[C@H]1OC(C(=O)Nc2ccc(F)cc2)=C[C@H](O)[C@@H]1O)C(N)=O	6.25 µg/mL (≈ 11.3 µM)	67 nM	4 µg/mL (≈ 7.24 µM)	2 µg/mL (≈ 3.62 µM)	2 µg/mL (≈ 3.62 µM)
CO[C@H]1[C@@H](O)[C@H](n2ccc(=O)[nH]c2=O)O[C@@H]1[C@@H](O[C@H]1OC(C(=O)NCCc2ccc(Cl)cc2Cl)=C[C@H](O)[C@@H]1O)C(N)=O	50 µg/mL (≈ 79.2 µM)	30.1 nM			
CO[C@H]1[C@@H](O)[C@H](n2ccc(=O)[nH]c2=O)O[C@@H]1[C@@H](O[C@H]1OC(C(=O)NCc2ccc(F)cc2)=C[C@H](O)[C@@H]1O)C(N)=O	50 µg/mL (≈ 88.3 µM)	353 nM			
CO[C@H]1[C@@H](O)[C@H](n2ccc(=O)[nH]c2=O)O[C@@H]1[C@@H](O[C@H]1OC(C(=O)N[C@@H](C)c2ccccc2)=C[C@H](O)[C@@H]1O)C(N)=O	50 µg/mL (≈ 88.9 µM)	231 nM			
CO[C@H]1[C@@H](O)[C@H](n2ccc(=O)[nH]c2=O)O[C@@H]1[C@@H](O[C@H]1OC(C(=O)Nc2ccc(Br)cc2)=C[C@H](O)[C@@H]1O)C(N)=O	6.25 µg/mL (≈ 10.2 µM)	32.6 nM	8 µg/mL (≈ 13 µM)	0.5 µg/mL (≈ 0.815 µM)	8 µg/mL (≈ 13 µM)
CNC(=O)C1=C[C@H](O)[C@H](O)[C@@H](O[C@@H](C(N)=O)[C@H]2O[C@@H](n3ccc(=O)[nH]c3=O)[C@H](O)[C@@H]2OC)O1	> 100 µg/mL	381 nM			
COc1cccc(CCNC(=O)C2=C[C@H](O)[C@H](O)[C@@H](O[C@@H](C(N)=O)[C@H]3O[C@@H](n4ccc(=O)[nH]c4=O)[C@H](O)[C@@H]3OC)O2)c1	50 µg/mL (≈ 84.4 µM)	32.1 nM			
CCOCCCNC(=O)C1=C[C@H](O)[C@H](O)[C@@H](O[C@@H](C(N)=O)[C@H]2O[C@@H](n3ccc(=O)[nH]c3=O)[C@H](O)[C@@H]2OC)O1	100 µg/mL (≈ 184 µM)	257 nM			
CCCCNC(=O)C1=C[C@H](O)[C@H](O)[C@@H](O[C@@H](C(N)=O)[C@H]2O[C@@H](n3ccc(=O)[nH]c3=O)[C@H](O)[C@@H]2OC)O1	12.5 µg/mL (≈ 24.3 µM)	544 nM			
CO[C@H]1[C@@H](O)[C@H](n2ccc(=O)[nH]c2=O)O[C@@H]1[C@@H](O[C@H]1OC(C(=O)NCc2ccc3c(c2)OCO3)=C[C@H](O)[C@@H]1O)C(N)=O	50 µg/mL (≈ 84.4 µM)	338 nM			
CO[C@H]1[C@@H](O)[C@H](n2ccc(=O)[nH]c2=O)O[C@@H]1[C@@H](O[C@H]1OC(C(=O)Nc2ccc(Cl)cc2)=C[C@H](O)[C@@H]1O)C(N)=O	6.25 µg/mL (≈ 11 µM)	31.6 nM	4 µg/mL (≈ 7.03 µM)	2 µg/mL (≈ 3.52 µM)	16 µg/mL (≈ 28.1 µM)
CO[C@H]1[C@@H](O)[C@H](n2ccc(=O)[nH]c2=O)O[C@@H]1[C@@H](O[C@H]1OC(C(=O)Nc2cccc(C)c2)=C[C@H](O)[C@@H]1O)C(N)=O	12.5 µg/mL (≈ 22.8 µM)	13.9 nM	4 µg/mL (≈ 7.29 µM)	1 µg/mL (≈ 1.82 µM)	8 µg/mL (≈ 14.6 µM)
CO[C@H]1[C@@H](O)[C@H](n2ccc(=O)[nH]c2=O)O[C@@H]1[C@@H](O[C@H]1OC(C(=O)NCCc2ccccn2)=C[C@H](O)[C@@H]1O)C(N)=O	25 µg/mL (≈ 44.4 µM)	195 nM			
COc1ccc(CNC(=O)C2=C[C@H](O)[C@H](O)[C@@H](O[C@@H](C(N)=O)[C@H]3O[C@@H](n4ccc(=O)[nH]c4=O)[C@H](O)[C@@H]3OC)O2)cc1	100 µg/mL (≈ 173 µM)	1210 nM			
CO[C@H]1[C@@H](O)[C@H](n2ccc(=O)[nH]c2=O)O[C@@H]1[C@@H](O[C@H]1OC(C(=O)N[C@H]2CCC[C@@H](C)NC2=O)=C[C@H](O)[C@@H]1O)C(N)=O	6.25 µg/mL (≈ 10.7 µM)		8 µg/mL (≈ 13.7 µM)	4 µg/mL (≈ 6.85 µM)	16 µg/mL (≈ 27.4 µM)
CO[C@H]1[C@@H](O)[C@H](n2ccc(=O)[nH]c2=O)O[C@@H]1[C@@H](O[C@H]1OC(C(=O)NCCc2ccccc2)=C[C@H](O)[C@@H]1O)C(N)=O	12.5 µg/mL (≈ 22.2 µM)	37.3 nM			
CO[C@H]1[C@@H](O)[C@H](n2ccc(=O)[nH]c2=O)O[C@@H]1[C@@H](O[C@H]1OC(C(=O)Nc2cccc(F)c2)=C[C@H](O)[C@@H]1O)C(N)=O	6.25 µg/mL (≈ 11.3 µM)		2 µg/mL (≈ 3.62 µM)	2 µg/mL (≈ 3.62 µM)	8 µg/mL (≈ 14.5 µM)
CCOc1ccccc1NC(=O)C1=C[C@H](O)[C@H](O)[C@@H](O[C@@H](C(N)=O)[C@H]2O[C@@H](n3ccc(=O)[nH]c3=O)[C@H](O)[C@@H]2OC)O1	50 µg/mL (≈ 86.4 µM)	64 nM			
CO[C@H]1[C@@H](O)[C@H](n2ccc(=O)[nH]c2=O)O[C@@H]1[C@@H](O[C@H]1OC(C(=O)Nc2ccccc2)=C[C@H](O)[C@@H]1O)C(N)=O	6.25 µg/mL (≈ 11.7 µM)		16 µg/mL (≈ 29.9 µM)	4 µg/mL (≈ 7.48 µM)	8 µg/mL (≈ 15 µM)
CO[C@H]1[C@@H](O)[C@H](n2ccc(=O)[nH]c2=O)O[C@@H]1[C@@H](O[C@H]1OC(C(=O)Nc2ccc(C(C)C)cc2)=C[C@H](O)[C@@H]1O)C(N)=O	25 µg/mL (≈ 43.4 µM)	208 nM			
COc1ccc(CCNC(=O)C2=C[C@H](O)[C@H](O)[C@@H](O[C@@H](C(N)=O)[C@H]3O[C@@H](n4ccc(=O)[nH]c4=O)[C@H](O)[C@@H]3OC)O2)cc1	25 µg/mL (≈ 42.2 µM)	67.5 nM			
CO[C@H]1[C@@H](O)[C@H](n2ccc(=O)[nH]c2=O)O[C@@H]1[C@@H](O[C@H]1OC(C(=O)Nc2ccc(F)c(F)c2)=C[C@H](O)[C@@H]1O)C(N)=O	6.25 µg/mL (≈ 11 µM)		2 µg/mL (≈ 3.51 µM)	0.5 µg/mL (≈ 0.876 µM)	8 µg/mL (≈ 14 µM)
CCCCN(C)C(=O)C1=C[C@H](O)[C@H](O)[C@@H](O[C@@H](C(N)=O)[C@H]2O[C@@H](n3ccc(=O)[nH]c3=O)[C@H](O)[C@@H]2OC)O1	> 100 µg/mL	> 4730 nM			
COC(=O)C1=C[C@H](O)[C@H](O)[C@@H](O[C@@H](C(N)=O)[C@H]2O[C@@H](n3ccc(=O)[nH]c3=O)[C@H](O)[C@@H]2OC)O1	> 100 µg/mL	57 nM			
CO[C@H]1[C@@H](O)[C@H](n2ccc(=O)[nH]c2=O)O[C@@H]1[C@@H](O[C@H]1OC(C(=O)N[C@H]2CCCCNC2=O)=C[C@H](O)[C@@H]1O)C(N)=O [CAPURAMYCIN]	12.5 µg/mL (≈ 21.9 µM)	18 nM	8 µg/mL (≈ 14 µM)	8 µg/mL (≈ 14 µM)	8 µg/mL (≈ 14 µM)
NNC(=O)c1ccncc1 [ISONIAZID]			1 µg/mL (≈ 7.29 µM)	8 µg/mL (≈ 58.3 µM)	2 µg/mL (≈ 14.6 µM)
CO[C@H]1/C=C/O[C@@]2(C)Oc3c(C)c(O)c4c(O)c(c(/C=N/N5CCN(C)CC5)c(O)c4c3C2=O)NC(=O)/C(C)=C\C=C\[C@H](C)[C@H](O)[C@@H](C)[C@@H](O)[C@@H](C)[C@H](OC(C)=O)[C@@H]1C [RIFAMPIN]			0.125 µg/mL (≈ 0.152 µM)	0.125 µg/mL (≈ 0.152 µM)	0.25 µg/mL (≈ 0.304 µM)
